In patent US4428938A, “Peptides affecting the immune regulation and a process for their preparation” (Richter Gedeon Vegyeszeti Gyar Rt., priority 1981, dated 1984):
Non-standard residues stand in square brackets, D forms with d. Residues, ends and D or L forms follow the SMILES beside them. pGlu = O=C1CC[C@@H](C(=O)O)N1

Legend:
[1] = system: lymphocytes of patients suffering from rheumatoid arthritis; experiment: Active E-rosette test, lymphocytes of rheumatoid arthritis patients; type: cell-based, human; conditions: for E-rosette forming activity, percentage amount of active lymphocytes: n = 4
Method: (§1) The active E-rosette test was carried out according to a modified method of Wybran et al [Wybran et al: New Engl. J. Med. 292, 475 (1975)] by the lymphocites of healthy and autoimmune patients (rheumatoid arthritis and systemic lupus erythematosus). To 50 μl of a lymphocyte cell suspension 10^-3 -10^-11 moles/lit. solutions of the test material were added and the mixture was incubated in an atmosphere containing 5.0% of carbon dioxide, at 37° C. for 60 minutes. Thereafter 50 μlit. of a 1% sheep erythrocite suspension were added and the mixture was centrifuged at 1000 r.p.m. for 10 minutes followed by shaking with a modified Gallenkampf-shaker (shaking time: 30 sec, stroke: 8 cm, shaking frequency: 65/min.). The rosettes were fixed with a 0.1% glutaric aldehyde (50 μlit. for each tube, 3 min.). Lymphocytes bonding more than three sheep erythrocite were counted under a microscope and 4×100 cells were evaluated. The separated lymphocytes contain macrophages and polymorphonuclear cells (up to 10%) as an impurity. The number of the cells forming the rosettes was corrected by this value each case.

[2] = system: lymphocytes of healthy persons; experiment: Active E-rosette test, lymphocytes of healthy persons; type: cell-based, human; conditions: for E-rosette forming activity, percentage amount of active lymphocytes: n = 4
Method: as §1

[3] = system: plaque forming spleen cells (PFC); experiment: Effect on plaque forming spleen cells (PFC); type: in vivo, H. Wistar rats; conditions: for Ratio of the plaque formation produced by treated and untreated (control) animals: new-born animals
Method: (2) The number of the cells producing a specific antibody was determined by the method of Canningham Handbook of Experimental Immunology (editor: D. M. Weir), 2nd Volume, p. 285, Blackwell, Oxford-London (1978). According to this method from the spleen cells of immunized animals, sheep erythrocyte suspension and complement a homogenous suspension was prepared and it was placed into a chamber suitable for forming a single cell layer. Around the spleen cells lytic areolas are formed, the number of which is identical with the number of the cells producing a specific antibody (plaque forming cells, PFC).
The test animals, not later than 12 hour after birth, were given a single i.p. dose of the test material. According to the method (1) three different doses of each substance were tested. On the 7th day after immunization the plaque formation of the spleen cells isolated from the animals was examined.

[4] = system: antibody production against sheep erythrocyte; experiment: Effect on antibody production (Ceglowski's method), agglutination titer; type: in vivo, H. Wistar rats
Method: (1) The effect on antibody production was tested according to Ceglowski's method [Ceglowski: Ann. N.Y. Acad. Sci. 249, 343 (1975)]. New-born H. Wistar rats were treated with single 25 μlit. doses of 4×10^-3 -4×10^-7 moles/lit. of the test material (9 animals for each dose) at the latest at the 12th hour after birth. The 14-day animals were then immunized with a sheep erythrocyte suspension administering 0.5 ml. of a 5% sheep erythrocyte suspension each animal intraperitoneally. On the 7th day after immunization the animals were decapitated. The blood of three animals was mixed and from the serum obtained (after centrifuging at 3000 r.p.m. for 10 minutes) the titers for antibodies were determined by the method of Takatsy [Takatsy: Acta Microbiol. Acad. Sci. Hung. 3, 191 (1955)]. The results are expressed in agglutination titers. The titer corresponds to the […] dilution of the serum in which agglutination can be observed.

[5] = system: antibody production against sheep erythrocyte; experiment: as above; type: in vivo, H. Wistar rats; remark: listed apart in the source
[6] = single i.p. dose 1.0·10^-4 mmoles
[7] = single i.p. dose 1.0·10^-6 mmoles
[8] = single 25 μlit. dose of 4·10^-3 moles/liter to new-born rats
[9] = single 25 μlit. dose of 4·10^-5 moles/liter to new-born rats
[10] = single 25 μlit. dose of 4·10^-7 moles/liter to new-born rats
[11] = single i.p. dose 1.0·10^-8 mmoles

Structure (SMILES) | E-rosette forming activity, percentage amount of active lymphocytes ([1]; 10^-3 moles/liter) [%] | E-rosette forming activity, percentage amount of active lymphocytes ([1]; 10^-5 moles/liter) [%] | E-rosette forming activity, percentage amount of active lymphocytes ([1]; 10^-7 moles/liter) [%] | E-rosette forming activity, percentage amount of active lymphocytes ([1]; 10^-9 moles/liter) [%] | E-rosette forming activity, percentage amount of active lymphocytes ([1]; 10^-11 moles/liter) [%] | E-rosette forming activity, percentage amount of active lymphocytes ([2]; 10^-3 moles/liter) [%] | E-rosette forming activity, percentage amount of active lymphocytes ([2]; 10^-5 moles/liter) [%] | E-rosette forming activity, percentage amount of active lymphocytes ([2]; 10^-7 moles/liter) [%] | E-rosette forming activity, percentage amount of active lymphocytes ([2]; 10^-9 moles/liter) [%] | E-rosette forming activity, percentage amount of active lymphocytes ([2]; 10^-11 moles/liter) [%] | In vivo effect on plaque forming spleen cells (in words) ([3]; in all tested doses) | Ratio of the plaque formation produced by treated and untreated (control) animals [3, 6] | Ratio of the plaque formation produced by treated and untreated (control) animals [3, 7] | Effect on E-rosette forming activity (in words) ([2]; 10^-11 moles/lit.) | In vivo effect on the antibody production (in words) ([4]; 4.10^-7 moles/lit.) | Antibody production, agglutination titer (X ± S.D.) [4, 8] | Antibody production, agglutination titer (X ± S.D.) [4, 9] | Antibody production, agglutination titer (X ± S.D.) [4, 10] | Ratio of the plaque formation produced by treated and untreated (control) animals [3, 11] | also measured
CC(C)[C@H](NC(=O)[C@H](CC(=O)O)NC(=O)[C@H](CCCCN)NC(=O)[C@H](C)N)C(=O)O [Ala--Lys--Asp--Val, Ala-Lys-Asp-Val] (H-AKDV-OH) | 25.3 | 22.8 | 22.5 | 23.9 | 20.3 | 43.4 | 34.9 | 47.5 | 39.1 | 36.2 | significant inhibiting activity | 0.04 | 0.01 | – | – | – | – | – | – | Effect on E-rosette forming activity (in words) ([2]; 10^-7 moles/lit.): significant stimulating effect
C[C@H](NC(=O)[C@H](CC(=O)O)NC(=O)[C@H](CCCCN)NC(=O)[C@@H](N)CCCNC(=N)N)C(=O)O [Arg--Lys--Asp--Ala, Arg-Lys-Asp-Ala] (H-RKDA-OH) | 28.6 | 24.5 | 25.8 | 25.3 | 27.9 | 41.2 | 39.6 | 40.8 | 36.4 | 40.5 | substantial increase | 4.9 | 1.9 | stimulating effect | significant stimulating activity | 10.5 ± 1.5 | 11.5 ± 0.9 | 12.0 ± 0 | 3.0 | –
CC(C)[C@H](NC(=O)[C@H](CC(=O)O)NC(=O)[C@H](CCCCN)NC(=O)[C@@H](N)CCCNC(=N)N)C(N)=O [Arg--Lys--Asp--Val--NH2, Arg-Lys-Asp-Val-NH2] (H-RKDV-NH2) | 31.5 | 29.8 | 26.9 | 34.8 | 28.2 | 29.0 | 33.8 | 35.1 | 26.6 | 38.1 | – | 0.3 | 0.52 | stimulating effect | – | – | – | – | 2.7 | Effect on E-rosette forming activity (in words) ([1]; 10^-9 moles/lit.): significantly stimulated; Antibody production, agglutination titer (X ± S.D.) ([4]; single 25 μlit. dose of 4·10^-4 moles/liter to new-born rats): 5.2 ± 2.2; Antibody production, agglutination titer (X ± S.D.) ([4]; single 25 μlit. dose of 4·10^-6 moles/liter to new-born rats): 6.2 ± 2.0; In vivo effect on plaque forming spleen cells (in words) ([3]; in lower doses): about two-times increase; In vivo effect on the antibody production (in words) ([5]; 4.10^-8 moles/lit.): significant stimulating activity; Antibody production, agglutination titer (X ± S.D.) ([5]; single 25 μlit. dose of 4·10^-8 moles/liter to new-born rats): 6.8 ± 0.8
COC(=O)[C@@H](NC(=O)[C@H](CC(=O)O)NC(=O)[C@H](CCCCN)NC(=O)[C@@H](N)CCCNC(=N)N)C(C)C [Arg--Lys--Asp--Val--OMe, Arg-Lys-Asp-Val-OMe] (H-RKDV-OMe) | 31.2 | 30.8 | 32.4 | 27.9 | 26.5 | 26.8 | 27.2 | 29.4 | 24.8 | 23.8 | – | – | – | – | – | 6.0 ± 1.7 | 4.5 ± 0.5 | 5.5 ± 2.6 | – | Effect on E-rosette forming activity (in words) ([1]; 10^-7 moles/lit.): stimulating effect
CC(C)[C@H](NC(=O)[C@H](CC(=O)O)NC(=O)[C@H](CCCCN)NC(=O)[C@H](CCCNC(=N)N)NC(=O)[C@@H]1CCC(=O)N1)C(=O)O [Glp--Arg--Lys--Asp--Val, Glp-Arg-Lys-Asp-Val] ([pGlu]RKDV-OH) | 22.8 | 23.2 | 21.4 | 19.4 | 20.4 | – | – | – | – | – | – | – | – | – | inhibiting activity | 9.0 ± 2.6 | 8.3 ± 0.6 | 7.2 ± 1.3 | – | –
CC(C)[C@H](NC(=O)[C@H](CC(=O)O)NC(=O)[C@H](CCCCN)NC(=O)[C@H](CCCNC(=N)N)NC(=O)[C@@H]1CCC(=O)N1)C(=O)N[C@@H](Cc1ccc(O)cc1)C(=O)O [Glp--Arg--Lys--Asp--Val--Tyr, Glp-Arg-Lys-Asp-Val-Tyr] ([pGlu]RKDVY-OH) | 24.1 | 22.7 | 22.6 | 26.6 | 24.9 | 29.9 | 22.5 | 29.4 | 25.5 | 29.9 | – | – | – | – | – | – | – | – | – | In vivo effect on the antibody production (in words) ([4]; 2.10^-3 moles/lit.): inhibiting activity; Antibody production, agglutination titer (X ± S.D.) ([4]; column 4·10^-3 moles/liter, footnote x: concentration is half of the head value): 3.0 ± 1.0; Antibody production, agglutination titer (X ± S.D.) ([4]; column 4·10^-5 moles/liter, footnote x: concentration is half of the head value): 5.2 ± 0.8; Antibody production, agglutination titer (X ± S.D.) ([5]; footnote y: concentration 2·10^-1 moles/liter): 5.5 ± 0.6
